Assay results published in patent US12391737B2, “Soluble NPY2 receptor agonists” (Boehringer Ingelheim International GmbH, priority 2020, dated 2025).
pEC50, pKi: −log10 of the molar value.

Tests used:
[1] = target: T1, human NPY5 receptor (hY5R) (Homo sapiens, UniProt Q15761); test: HTRF cAMP Gi assay, hY5R
T1 sequence (Q15761 1-445): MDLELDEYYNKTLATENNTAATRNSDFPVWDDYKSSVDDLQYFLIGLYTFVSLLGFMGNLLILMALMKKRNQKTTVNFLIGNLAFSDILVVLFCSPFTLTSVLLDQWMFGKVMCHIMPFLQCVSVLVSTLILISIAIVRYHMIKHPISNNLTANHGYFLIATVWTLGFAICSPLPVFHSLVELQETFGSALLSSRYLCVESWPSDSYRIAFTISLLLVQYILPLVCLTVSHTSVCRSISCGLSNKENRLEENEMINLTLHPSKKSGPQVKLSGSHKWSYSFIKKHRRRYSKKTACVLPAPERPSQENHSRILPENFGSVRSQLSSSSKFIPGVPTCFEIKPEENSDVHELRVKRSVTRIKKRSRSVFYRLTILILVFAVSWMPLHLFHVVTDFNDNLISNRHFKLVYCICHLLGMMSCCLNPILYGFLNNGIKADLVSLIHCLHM
Procedure: (§1) Briefly, the production of intracellular cAMP will generate a competition between unlabeled cAMP and exogenously added d2-cAMP for anti-cAMP antibodies conjugated to cryptate. CHO-K1 cells stably expressing the human NPY1, NPY2, NPY4 and NPY5 receptors were used with the cells brought to life from a frozen stock immediately before assay performance. 2000 cells per well were applied for all four NPY receptor subtype assays. A 384-well format was used applying a total volume of 20 μl using 5 μl cells, 2.5 μl peptide agonist, 2.5 μl forskolin and 5 μl of each of the fluorophores. […] Concentration-response evaluation of compounds was performed with 11 concentrations of agonist peptides (covering 3 decades). EC50 values were calculated by nonlinear regression using sigmoid concentration-response with variable slope.

[2] = target: T2, human NPY1 receptor (hY1R) (Homo sapiens, UniProt P25929); test: HTRF cAMP Gi assay, hY1R; type: cell-based; details: CHO-K1 cells
T2 construct: expressed in transfected cells; host or cells: CHO-K1
T2 sequence (P25929 1-384): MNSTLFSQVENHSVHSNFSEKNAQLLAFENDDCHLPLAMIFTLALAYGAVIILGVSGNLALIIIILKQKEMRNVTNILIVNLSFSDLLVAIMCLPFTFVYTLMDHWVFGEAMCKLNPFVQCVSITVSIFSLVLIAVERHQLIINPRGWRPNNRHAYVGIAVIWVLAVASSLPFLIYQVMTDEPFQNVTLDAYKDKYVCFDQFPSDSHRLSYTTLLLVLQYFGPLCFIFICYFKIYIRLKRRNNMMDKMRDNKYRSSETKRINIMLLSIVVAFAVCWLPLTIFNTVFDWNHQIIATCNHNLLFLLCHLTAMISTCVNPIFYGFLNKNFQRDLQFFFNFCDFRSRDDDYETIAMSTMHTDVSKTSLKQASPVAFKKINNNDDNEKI

Solubility determination = details: for Sol6: pH 6; for Sol7: pH 7
Method in brief: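 Solubility is derived from the ratio of reversed-phase peak areas, filtered sample over a control dissolved at 1 mg/ml in 50% acetonitrile. Peptides are agitated for 2 hours at room temperature in 0.1 M sodium diphosphate at pH 6.4 or 7.0, aiming at 10 mg/ml.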

[3] = target: T3, human NPY4 receptor (hY4R) (Homo sapiens, UniProt P50391); test: HTRF cAMP Gi assay, hY4R; type: cell-based; details: CHO-K1 cells
T3 construct: expressed in transfected cells; host or cells: CHO-K1
T3 sequence (P50391 whole entry): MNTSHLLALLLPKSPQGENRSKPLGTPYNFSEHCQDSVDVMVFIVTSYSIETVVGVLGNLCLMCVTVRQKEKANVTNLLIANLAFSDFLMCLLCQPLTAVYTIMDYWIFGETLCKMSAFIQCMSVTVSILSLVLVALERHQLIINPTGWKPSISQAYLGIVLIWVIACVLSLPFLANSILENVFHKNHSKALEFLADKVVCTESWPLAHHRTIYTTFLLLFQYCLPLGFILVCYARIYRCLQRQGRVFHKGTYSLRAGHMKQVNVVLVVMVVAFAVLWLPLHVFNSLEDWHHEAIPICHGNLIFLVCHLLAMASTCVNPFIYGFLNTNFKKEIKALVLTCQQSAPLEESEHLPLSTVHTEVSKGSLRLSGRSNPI
Procedure: as §1

[4] = target: T4, Human Neuropeptide Y2 Receptor (Homo sapiens, UniProt P49146); test: Radioligand binding competition assay (RLB); details: Table 3, 125I-PYY(1-36) competition; read-out: Ki
T4 construct: purchased CHEMICON HTS066M
T4 sequence (P49146 1-381): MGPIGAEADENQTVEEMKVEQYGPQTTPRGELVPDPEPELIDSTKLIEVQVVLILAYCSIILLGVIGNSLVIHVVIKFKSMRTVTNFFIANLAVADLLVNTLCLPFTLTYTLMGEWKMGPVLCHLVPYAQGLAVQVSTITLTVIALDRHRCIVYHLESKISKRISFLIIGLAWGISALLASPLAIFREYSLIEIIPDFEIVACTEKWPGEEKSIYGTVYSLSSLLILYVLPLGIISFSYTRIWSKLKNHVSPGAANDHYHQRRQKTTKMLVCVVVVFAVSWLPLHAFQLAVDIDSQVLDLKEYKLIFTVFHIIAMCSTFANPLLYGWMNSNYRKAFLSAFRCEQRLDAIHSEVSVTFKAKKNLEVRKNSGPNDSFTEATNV
Method in brief: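 Filtration competition binding on membranes from cells expressing the receptor, 0.5 μg protein/well, in 50 mM HEPES, 5 mM MgCl2, 1 mM CaCl2, pH 7.4, with 0.2% ovalbumin. Incubation ran 2 h at room temperature, followed by GF/C filtration and scintillation counting. IC50 came from nonlinear sigmoidal fits.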

| pEC50 [1] | pEC50 [2] | Sol6 (Solubility determination) [mg/mL] | Sol7 (Solubility determination) [mg/mL] | pEC50 [3] | pKi [4] | Structure (SMILES) |
| --- | --- | --- | --- | --- | --- | --- |
| < 5.30 | < 5.30 | 8.5 | 9.2 | < 5.30 | 9.02 | CC[C@H](C)[C@H](NC(=O)[C@H](CCC(=O)O)NC(=O)[C@H](CCC(=O)O)NC(=O)[C@@H]1CCCN1C(=O)[C@@H](NC(=O)[C@H](C)NC(=O)[C@H](CC(=O)O)NC(=O)[C@H](CCC(=O)O)NC(=O)[C@H](CCC(=O)O)NC(=O)[C@@H]1CCCN1C(=O)[C@H](CCCCNC(=O)CCCCCNC(=O)CC[C@H](NC(=O)CCCCCCCCCCCCCCCCC(=O)O)C(=O)O)NC(=O)[C@H](C)NC(=O)[C@@H]1CCCN1C(=O)[C@H](C)NC(=O)CC(C)C)[C@@H](C)O)C(=O)N[C@@H](CCC(N)=O)C(=O)N[C@@H](CCCNC(=N)N)C(=O)N[C@@H](Cc1ccc(O)cc1)C(=O)N[C@@H](Cc1ccc(O)cc1)C(=O)N[C@H](C(=O)N[C@@H](CO)C(=O)N[C@@H](CC(C)C)C(=O)N[C@@H](CCCNC(=N)N)C(=O)N[C@@H](Cc1c[nH]cn1)C(=O)N[C@@H](Cc1ccc(O)cc1)C(=O)N[C@@H](Cc1ccc(O)cc1)C(=O)N[C@@H](CC(N)=O)C(=O)N[C@@H](Cc1c[nH]c2ccccc12)C(=O)N[C@@H](CC(C)C)C(=O)N[C@H](C(=O)N[C@@H](CCCNC(=N)N)C(=O)N[C@@H](CCC(N)=O)C(=O)N[C@@H](CCCNC(=N)N)C(=O)N[C@@H](Cc1ccc(O)cc1)C(N)=O)[C@@H](C)O)C(C)C [Compound 114, N{alpha-4}-(3-methylbutanoyl)-N{epsilon-7}-(6-[(4S)-4-carboxy-4-(17-carboxyheptadecanamido)butanamido]hexanoyl)-[4A,6A,7K,9E,13T,17I,18Q,22V,28Y,30W,31L]-hPYY(4-36)] |
| < 5.30 | < 5.30 | 9.7 | 10.0 | < 5.30 | 8.66 | CC[C@H](C)[C@H](NC(=O)[C@H](CCC(=O)O)NC(=O)[C@H](CCC(=O)O)NC(=O)[C@@H]1CCCN1C(=O)[C@H](CO)NC(=O)[C@H](C)NC(=O)[C@H](C)NC(=O)[C@H](CCC(=O)O)NC(=O)[C@H](CCC(=O)O)NC(=O)[C@@H]1CCCN1C(=O)[C@H](CCCCNC(=O)CCCCCNC(=O)CC[C@H](NC(=O)CCCCCCCCCCCCCCCCC(=O)O)C(=O)O)NC(=O)[C@H](CCC(=O)O)NC(=O)[C@@H]1CCCN1C(=O)[C@H](C)NC(=O)CC(C)C)C(=O)N[C@@H](CCC(N)=O)C(=O)N[C@@H](CCCNC(=N)N)C(=O)N[C@@H](Cc1ccc(O)cc1)C(=O)N[C@@H](Cc1ccc(O)cc1)C(=O)N[C@H](C(=O)N[C@@H](CO)C(=O)N[C@@H](CC(C)C)C(=O)N[C@@H](CCCNC(=N)N)C(=O)N[C@@H](Cc1c[nH]cn1)C(=O)N[C@@H](Cc1ccc(O)cc1)C(=O)N[C@@H](Cc1ccc(O)cc1)C(=O)N[C@@H](CC(N)=O)C(=O)N[C@@H](Cc1c[nH]c2ccccc12)C(=O)N[C@@H](CC(C)C)C(=O)N[C@H](C(=O)N[C@@H](CCCNC(=N)N)C(=O)N[C@@H](CCC(N)=O)C(=O)N[C@@H](CCCNC(=N)N)C(=O)N[C@@H](Cc1ccc(O)cc1)C(N)=O)[C@@H](C)O)C(C)C [Compound 150, N{alpha-4}-(3-methylbutanoyl)-N{epsilon-7}-(6-[(4S)-4-carboxy-4-(17-carboxyheptadecanamido)butanamido]hexanoyl)-[4A,7K,9E,11A,17I,18Q,22V,28Y,30W,31L]-hPYY(4-36)] |
| < 5.30 | < 5.30 | 10.0 | >10.0 | < 5.30 | 8.54 | CC(C)CC(=O)N[C@@H](C)C(=O)N1CCC[C@H]1C(=O)N[C@@H](CCC(=O)O)C(=O)N[C@@H](CCCCNC(=O)CCCCCNC(=O)CC[C@H](NC(=O)CCCCCCCCCCCCCCCCC(=O)O)C(=O)O)C(=O)N1CCC[C@H]1C(=O)N[C@@H](CCC(=O)O)C(=O)N[C@@H](CCC(=O)O)C(=O)N[C@@H](C)C(=O)N[C@@H](C)C(=O)N[C@H](C(=O)N1CCC[C@H]1C(=O)N[C@@H](CCC(=O)O)C(=O)N[C@@H](CCC(=O)O)C(=O)N[C@@H](CC(C)C)C(=O)N[C@@H](CCC(N)=O)C(=O)N[C@@H](CCCNC(=N)N)C(=O)N[C@@H](Cc1ccc(O)cc1)C(=O)N[C@@H](Cc1ccc(O)cc1)C(=O)N[C@H](C(=O)N[C@@H](CO)C(=O)N[C@@H](CC(C)C)C(=O)N[C@@H](CCCNC(=N)N)C(=O)N[C@@H](Cc1c[nH]cn1)C(=O)N[C@@H](Cc1ccc(O)cc1)C(=O)N[C@@H](Cc1ccc(O)cc1)C(=O)N[C@@H](CC(N)=O)C(=O)N[C@@H](Cc1c[nH]c2ccccc12)C(=O)N[C@@H](CC(C)C)C(=O)N[C@H](C(=O)N[C@@H](CCCNC(=N)N)C(=O)N[C@@H](CCC(N)=O)C(=O)N[C@@H](CCCNC(=N)N)C(=O)N[C@@H](Cc1ccc(O)cc1)C(N)=O)[C@@H](C)O)C(C)C)[C@@H](C)O [Compound 128, N{alpha-4}-(3-methylbutanoyl)-N{epsilon-7}-(6-[(4S)-4-carboxy-4-(17-carboxyheptadecanamido)butanamido]hexanoyl)-[4A,7K,9E,11A,13T,18Q,22V,28Y,30W,31L]-hPYY(4-36)] |
| < 5.30 | < 5.30 | 9.6 | 10.0 | < 5.30 | 8.97 | CC(C)CC(=O)N[C@@H](C)C(=O)N1CCC[C@H]1C(=O)N[C@@H](CCC(=O)O)C(=O)N[C@@H](CCCCNC(=O)CCCCCNC(=O)CC[C@H](NC(=O)CCCCCCCCCCCCCCCCC(=O)O)C(=O)O)C(=O)N1CCC[C@H]1C(=O)N[C@@H](CCC(=O)O)C(=O)N[C@@H](C)C(=O)N[C@@H](CC(=O)O)C(=O)N[C@@H](C)C(=O)N[C@H](C(=O)N1CCC[C@H]1C(=O)N[C@@H](CCC(=O)O)C(=O)N[C@@H](CCC(=O)O)C(=O)N[C@@H](CC(C)C)C(=O)N[C@@H](CCC(N)=O)C(=O)N[C@@H](CCCNC(=N)N)C(=O)N[C@@H](Cc1ccc(O)cc1)C(=O)N[C@@H](Cc1ccc(O)cc1)C(=O)N[C@H](C(=O)N[C@@H](C)C(=O)N[C@@H](CC(C)C)C(=O)N[C@@H](CCCNC(=N)N)C(=O)N[C@@H](Cc1c[nH]cn1)C(=O)N[C@@H](Cc1ccc(O)cc1)C(=O)N[C@@H](Cc1ccc(O)cc1)C(=O)N[C@@H](CC(N)=O)C(=O)N[C@@H](Cc1c[nH]c2ccccc12)C(=O)N[C@@H](CC(C)C)C(=O)N[C@H](C(=O)N[C@@H](CCCNC(=N)N)C(=O)N[C@@H](CCC(N)=O)C(=O)N[C@@H](CCCNC(=N)N)C(=O)N[C@@H](Cc1ccc(O)cc1)C(N)=O)[C@@H](C)O)C(C)C)[C@@H](C)O [Compound 136, N{alpha-4}-(3-methylbutanoyl)-N{epsilon-7}-(6-[(4S)-4-carboxy-4-(17-carboxyheptadecanamido)butanamido]hexanoyl)-[4A,7K,9E,10A,13T,18Q,22V,23A,28Y,30W,31L]-hPYY(4-36)] |
